# Measurements from PMC12283027, “Development of Potent and Selective RIPK1 Degraders Targeting Its Nonenzymatic Function for Cancer Treatment” (Journal of Medicinal Chemistry, 2025).
# Biological target: T1, Receptor-interacting protein kinase 1 (RIPK1) (Homo sapiens, UniProt Q13546)
# T1 construct: with VHL
# Experiment: cell-based
# Parameters: HiBiT luminescence of CRISPR-tagged endogenous RIPK1 (C-terminal HiBiT) after PROTAC treatment; degradation DC50 and Dmax
# Settings: HEK293T-RIPK1-HiBiT cells; read-out: Dmax (HEK293T-RIPK1-HiBiT cell line)
# Method: Screening of RIPK1 Degraders Using HEK-293T-RIPK1-HiBiT cells  3 Primary screening RIPK1 degraders using HEK293T-RIPK1-HiBiT cell line. Cells were seeded in 96-well plates and treated with test compounds for 20 h. After treatment, Bioluminescence signal reflecting RIPK1 protein level was generated by adding Nano-Glo HiBiT detect reagent. A) Bioluminescence signal was visualized using Bio-Rad ChemiDoc MP Imaging system. The grayscale intensity is positively correlated with protein abundance. B) Relative luminescence Units (RLUs) in each well was measured using CLARIOstar plate reader. DC50 values were calculated by nonlinear regression analysis in GraphPad Prism software. DC50 = dose that reduces RIPK1 protein by 50%. D max = maximum reduction of RIPK1 protein achieved by the compound. Guide RNA oligos for RIPK1 (foward: CACCGA-GCCCAT-CCAGGG-TTAGTTC. reverse: AAACGA-ACTAAC-CCTGGA-TGGGCTC) were cloned into Cas9 expression plasmid (pSpCas9–2A-GFP purchased from Addgene), and cotransfected with donor DNA oligo using FuGENE HD Transfection Reagent (Promega). GFP positive cells were FACS sorted and single clones were screened for HiBiT signal by Nano Glo HiBiT Lytic Detection System (Promega).
# T1 sequence (Q13546 whole entry): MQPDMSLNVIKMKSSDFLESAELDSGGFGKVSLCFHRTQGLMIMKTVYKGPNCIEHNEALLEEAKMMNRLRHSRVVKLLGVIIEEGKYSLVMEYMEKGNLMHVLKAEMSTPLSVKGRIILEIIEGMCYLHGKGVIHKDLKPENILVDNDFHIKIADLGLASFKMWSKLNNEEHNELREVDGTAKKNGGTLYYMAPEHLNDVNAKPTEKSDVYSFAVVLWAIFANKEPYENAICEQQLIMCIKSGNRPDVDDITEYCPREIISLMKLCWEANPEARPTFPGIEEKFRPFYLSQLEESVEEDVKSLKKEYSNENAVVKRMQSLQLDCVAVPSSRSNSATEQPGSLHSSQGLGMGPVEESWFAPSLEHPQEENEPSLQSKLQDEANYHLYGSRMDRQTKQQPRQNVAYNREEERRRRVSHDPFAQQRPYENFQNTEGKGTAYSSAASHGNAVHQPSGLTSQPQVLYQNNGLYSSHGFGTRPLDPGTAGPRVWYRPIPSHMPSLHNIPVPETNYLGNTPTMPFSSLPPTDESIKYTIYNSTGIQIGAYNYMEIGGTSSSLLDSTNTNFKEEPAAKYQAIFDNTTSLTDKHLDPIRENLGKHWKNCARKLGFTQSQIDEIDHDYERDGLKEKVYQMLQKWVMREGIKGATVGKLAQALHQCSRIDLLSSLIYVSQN
# T1 sequence (P40337 whole entry partner): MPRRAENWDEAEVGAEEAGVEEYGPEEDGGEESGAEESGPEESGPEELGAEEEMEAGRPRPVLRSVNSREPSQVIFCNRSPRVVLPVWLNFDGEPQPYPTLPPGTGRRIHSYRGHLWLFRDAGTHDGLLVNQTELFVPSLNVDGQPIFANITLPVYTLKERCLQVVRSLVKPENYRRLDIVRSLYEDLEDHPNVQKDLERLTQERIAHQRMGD
row,SMILES,Dmax
1,Cc1ncsc1-c1ccc([C@H](C)NC(=O)[C@@H]2C[C@@H](O)CN2C(=O)[C@@H](NC(=O)CCCNC(=O)Cn2cc(-c3cnc(N)c4c(-c5ccc6c(c5)CCN6C(=O)Cc5ccccc5)csc34)cn2)C(C)(C)C)cc1 [216-11],62%
2,Cc1ncsc1-c1ccc([C@H](C)NC(=O)[C@@H]2C[C@@H](O)CN2C(=O)[C@@H](NC(=O)CCCCCOc2ccc(CNC(=O)Cn3cc(-c4cnc(N)c5c(-c6ccc7c(c6)CCN7C(=O)Cc6ccccc6)csc45)cn3)cc2)C(C)(C)C)cc1 [214-9],87%
3,Cc1ncsc1-c1ccc([C@H](C)NC(=O)[C@@H]2C[C@@H](O)CN2C(=O)[C@@H](NC(=O)CNC(=O)Cn2cc(-c3cnc(N)c4c(-c5ccc6c(c5)CCN6C(=O)Cc5ccccc5)csc34)cn2)C(C)(C)C)cc1 [216-9],1%
4,Cc1ncsc1-c1ccc([C@H](C)NC(=O)[C@@H]2C[C@@H](O)CN2C(=O)[C@@H](NC(=O)CCCCCNC(=O)Cn2cc(-c3cnc(N)c4c(-c5ccc6c(c5)CCN6C(=O)Cc5ccccc5)csc34)cn2)C(C)(C)C)cc1 [216-13],93%
5,Cc1ncsc1-c1ccc([C@H](C)NC(=O)[C@@H]2C[C@@H](O)CN2C(=O)[C@@H](NC(=O)CCOc2ccc(CCNC(=O)Cn3cc(-c4cnc(N)c5c(-c6ccc7c(c6)CCN7C(=O)Cc6ccccc6)csc45)cn3)cc2)C(C)(C)C)cc1 [204-4],96%
6,Cc1ncsc1-c1ccc([C@H](C)NC(=O)[C@@H]2C[C@@H](O)CN2C(=O)[C@@H](NC(=O)CCCCCCOc2ccc(CNC(=O)Cn3cc(-c4cnc(N)c5c(-c6ccc7c(c6)CCN7C(=O)Cc6ccccc6)csc45)cn3)cc2)C(C)(C)C)cc1 [214-10],92%
7,Cc1ncsc1-c1ccc([C@H](C)NC(=O)[C@@H]2C[C@@H](O)CN2C(=O)[C@@H](NC(=O)CCCOc2ccc(CCNC(=O)Cn3cc(-c4cnc(N)c5c(-c6ccc7c(c6)CCN7C(=O)Cc6ccccc6)csc45)cn3)cc2)C(C)(C)C)cc1 [204-6],81%
8,Cc1ncsc1-c1ccc([C@H](C)NC(=O)[C@@H]2C[C@@H](O)CN2C(=O)[C@@H](NC(=O)CCCCNC(=O)Cn2cc(-c3cnc(N)c4c(-c5ccc6c(c5)CCN6C(=O)Cc5ccccc5)csc34)cn2)C(C)(C)C)cc1 [216-12],51%
9,Cc1ncsc1-c1ccc([C@H](C)NC(=O)[C@@H]2C[C@@H](O)CN2C(=O)[C@@H](NC(=O)CCCCCCCNC(=O)Cn2cc(-c3cnc(N)c4c(-c5ccc6c(c5)CCN6C(=O)Cc5ccccc5)csc34)cn2)C(C)(C)C)cc1 [216-15],94%
10,Cc1ncsc1-c1ccc([C@H](C)NC(=O)[C@@H]2C[C@@H](O)CN2C(=O)[C@@H](NC(=O)COCCOCCOCCOCCNC(=O)Cn2cc(-c3cnc(N)c4c(-c5ccc6c(c5)CCN6C(=O)Cc5ccccc5)csc34)cn2)C(C)(C)C)cc1 [208-6],55%
11,Cc1ncsc1-c1ccc([C@H](C)NC(=O)[C@@H]2C[C@@H](O)CN2C(=O)[C@@H](NC(=O)COc2ccc(CCNC(=O)Cn3cc(-c4cnc(N)c5c(-c6ccc7c(c6)CCN7C(=O)Cc6ccccc6)csc45)cn3)cc2)C(C)(C)C)cc1 [204-2],95%
12,Cc1ncsc1-c1ccc([C@H](C)NC(=O)[C@@H]2C[C@@H](O)CN2C(=O)[C@@H](NC(=O)CCCOc2ccc(CNC(=O)Cn3cc(-c4cnc(N)c5c(-c6ccc7c(c6)CCN7C(=O)Cc6ccccc6)csc45)cn3)cc2)C(C)(C)C)cc1 [214-7],81%
13,Cc1ncsc1-c1ccc([C@H](C)NC(=O)[C@@H]2C[C@@H](O)CN2C(=O)[C@@H](NC(=O)CCNC(=O)Cn2cc(-c3cnc(N)c4c(-c5ccc6c(c5)CCN6C(=O)Cc5ccccc5)csc34)cn2)C(C)(C)C)cc1 [216-10],25%
14,Cc1ncsc1-c1ccc([C@H](C)NC(=O)[C@@H]2C[C@@H](O)CN2C(=O)[C@@H](NC(=O)COc2ccc(CNC(=O)Cn3cc(-c4cnc(N)c5c(-c6ccc7c(c6)CCN7C(=O)Cc6ccccc6)csc45)cn3)cc2)C(C)(C)C)cc1 [214-6],71%
15,Cc1ncsc1-c1ccc([C@H](C)NC(=O)[C@@H]2C[C@@H](O)CN2C(=O)[C@@H](NC(=O)CCCCCCCCNC(=O)Cn2cc(-c3cnc(N)c4c(-c5ccc6c(c5)CCN6C(=O)Cc5ccccc5)csc34)cn2)C(C)(C)C)cc1 [216-16],93%
16,Cc1ncsc1-c1ccc([C@H](C)NC(=O)[C@@H]2C[C@@H](O)CN2C(=O)[C@@H](NC(=O)COCCOCCOCCNC(=O)Cn2cc(-c3cnc(N)c4c(-c5ccc6c(c5)CCN6C(=O)Cc5ccccc5)csc34)cn2)C(C)(C)C)cc1 [208-4],75%
17,Cc1ncsc1-c1ccc([C@H](C)NC(=O)[C@@H]2C[C@@H](O)CN2C(=O)[C@@H](NC(=O)CCCCCCNC(=O)Cn2cc(-c3cnc(N)c4c(-c5ccc6c(c5)CCN6C(=O)Cc5ccccc5)csc34)cn2)C(C)(C)C)cc1 [216-14],88%
18,Cc1ncsc1-c1ccc([C@H](C)NC(=O)[C@@H]2C[C@@H](O)CN2C(=O)[C@@H](NC(=O)COCCOCCNC(=O)Cn2cc(-c3cnc(N)c4c(-c5ccc6c(c5)CCN6C(=O)Cc5ccccc5)csc34)cn2)C(C)(C)C)cc1 [208-2],78%

# Further lines, results first:
row,Dmax,SMILES
1,91%,Cc1ncsc1-c1ccc([C@H](C)NC(=O)[C@@H]2C[C@@H](O)CN2C(=O)[C@@H](NC(=O)CN2CCN(C3CCN(C(=O)Cn4cc(-c5cnc(N)c6c(-c7ccc8c(c7)CCN8C(=O)Cc7ccccc7)csc56)cn4)CC3)CC2)C(C)(C)C)cc1 [225-2]
2,92%,Cc1ncsc1-c1ccc([C@H](C)NC(=O)[C@@H]2C[C@@H](O)CN2C(=O)[C@@H](NC(=O)CCCCCOc2ccc(NC(=O)Cn3cc(-c4cnc(N)c5c(-c6ccc7c(c6)CCN7C(=O)Cc6ccccc6)csc45)cn3)cc2)C(C)(C)C)cc1 [217-13]
3,93%,Cc1ncsc1-c1ccc([C@H](C)NC(=O)[C@@H]2C[C@@H](O)CN2C(=O)[C@@H](NC(=O)CCCCOc2ccc(NC(=O)Cn3cc(-c4cnc(N)c5c(-c6ccc7c(c6)CCN7C(=O)Cc6ccccc6)csc45)cn3)cc2)C(C)(C)C)cc1 [217-12]
4,93%,Cc1ncsc1-c1ccc([C@H](C)NC(=O)[C@@H]2C[C@@H](O)CN2C(=O)[C@@H](NC(=O)CN2CCN(CC3CCN(C(=O)Cn4cc(-c5cnc(N)c6c(-c7ccc8c(c7)CCN8C(=O)Cc7ccccc7)csc56)cn4)CC3)CC2)C(C)(C)C)cc1 [225-4]
5,34%,Cc1ncsc1-c1ccc([C@H](C)NC(=O)[C@@H]2C[C@@H](O)CN2C(=O)[C@@H](NC(=O)C2CCN(CCNC(=O)Cn3cc(-c4cnc(N)c5c(-c6ccc7c(c6)CCN7C(=O)Cc6ccccc6)csc45)cn3)CC2)C(C)(C)C)cc1 [225-6]
6,92%,Cc1ncsc1-c1ccc([C@H](C)NC(=O)[C@@H]2C[C@@H](O)CN2C(=O)[C@@H](NC(=O)COCCOCCOc2ccc(CCNC(=O)Cn3cc(-c4cnc(N)c5c(-c6ccc7c(c6)CCN7C(=O)Cc6ccccc6)csc45)cn3)cc2)C(C)(C)C)cc1 [224-8]
7,87%,Cc1ncsc1-c1ccc([C@H](C)NC(=O)[C@@H]2C[C@@H](O)CN2C(=O)[C@@H](NC(=O)CN2CCN(C(=O)Cn3cc(-c4cnc(N)c5c(-c6ccc7c(c6)CCN7C(=O)Cc6ccccc6)csc45)cn3)CC2)C(C)(C)C)cc1 [225-3]
8,25%,Cc1ncsc1-c1ccc([C@H](C)NC(=O)[C@@H]2C[C@@H](O)CN2C(=O)[C@@H](NC(=O)CCN2CCN(CCNC(=O)Cn3cc(-c4cnc(N)c5c(-c6ccc7c(c6)CCN7C(=O)Cc6ccccc6)csc45)cn3)CC2)C(C)(C)C)cc1 [229-4]
9,95%,Cc1ncsc1-c1ccc([C@H](C)NC(=O)[C@@H]2C[C@@H](O)CN2C(=O)[C@@H](NC(=O)CCCOc2ccc(NC(=O)Cn3cc(-c4cnc(N)c5c(-c6ccc7c(c6)CCN7C(=O)Cc6ccccc6)csc45)cn3)cc2)C(C)(C)C)cc1 [217-11]
10,96%,Cc1ncsc1-c1ccc([C@H](C)NC(=O)[C@@H]2C[C@@H](O)CN2C(=O)[C@@H](NC(=O)COc2ccc(NC(=O)Cn3cc(-c4cnc(N)c5c(-c6ccc7c(c6)CCN7C(=O)Cc6ccccc6)csc45)cn3)cc2)C(C)(C)C)cc1 [217-10]
11,93%,Cc1ncsc1-c1ccc([C@H](C)NC(=O)[C@@H]2C[C@@H](O)CN2C(=O)[C@@H](NC(=O)COCCOCCOc2ccc(CNC(=O)Cn3cc(-c4cnc(N)c5c(-c6ccc7c(c6)CCN7C(=O)Cc6ccccc6)csc45)cn3)cc2)C(C)(C)C)cc1 [224-7]
12,93%,"Cc1ncsc1-c1ccc([C@H](C)NC(=O)[C@@H]2C[C@@H](O)CN2C(=O)[C@@H](NC(=O)CN2CCN(CC3CCN(CC4CCN(C(=O)Cn5cc(-c6cnc(N)c7c(-c8ccc9c(c8)CCN9C(=O)Cc8ccccc8)csc67)cn5)CC4)CC3)CC2)C(C)(C)C)cc1 [225-5, (2S,4R)-1-((S)-2-(2-(4-((1-((1-(2-(4-(4-Amino-3-(1-(2-phenylacetyl)indolin-5-yl)thieno[3,2-c]pyridin-7-yl)-1H-pyrazol-1-yl)acetyl)piperidin-4-yl)methyl)piperidin-4-yl)methyl)piperazin-1-yl)acetamido)-3,3-dimethylbutanoyl)-4-hydroxy-N-((S)-1-(4-(4-methylthiazol-5-yl)phenyl)ethyl)pyrrolidine-2-carboxamide]"
13,93%,Cc1ncsc1-c1ccc([C@H](C)NC(=O)[C@@H]2C[C@@H](O)CN2C(=O)[C@@H](NC(=O)COCCOc2ccc(CNC(=O)Cn3cc(-c4cnc(N)c5c(-c6ccc7c(c6)CCN7C(=O)Cc6ccccc6)csc45)cn3)cc2)C(C)(C)C)cc1 [224-5]
